Test results as given in US11466020B2, “Compounds and compositions for inhibition and elimination of Zika infection and uses for same” (Cornell University, priority 2017, dated 2022).
Where a name gives a salt, the structure may show the parent alone.

Tests used:
[1] = tested on: ZIKV (MR766 strain); assay: qRT-PCR of total ZIKV vRNA in supernatant of hNPC cultures; assay type: cell-based, Zika virus; conditions: 72 h after infection
Procedure: (§1) (A) Scheme of high content chemical screen. (B) Chemical structure of hit compounds. (C) Inhibitory curve and IC50 of HH or AQ on hNPCs (n=6). (D-H) Immunocytochemistry analysis (D), the quantification of the infection rate (E), the quantification of proliferation rate (F), the quantification of cell apoptosis rate (G) and the normalized cell viability (H) of hNPCs at 72 h after ZIKV (MR 766 strain) infection with or without drug treatment. Scale bars, 100 μm. The ZIKV infection rate is defined as the percentage of ZIKV E^+ cells. The proliferation rate is defined as the percentages of Ki67^+ cells. The cell apoptosis rate was defined as the percentage of cleaved-Caspase 3/CAS3^+ cells. The normalized cell viability was calculated by dividing the total cell number of each condition by the total cell number under mock infection conditions. (n=6). […] (K) Quantification of ZIKV infectious particles produced by ZIKV-infected hNPCs with or without compound treatment by the Vero cell reinfection assay. […] (M and N) Immunocytochemistry analysis (M) and quantification of the infection rate (N) of hNPCs at 72 h after ZIKV (PRVABC59 strain) infection with or without drug treatment (n=6). Scale bars, 100 μm. p values were calculated by one-way repeated measures ANOVA with a Bonferroni test for multiple comparisons. *p<0.05, **p<0.01 and ***p<0.001. […]

[2] = tested on: ZIKV (MR766 strain); assay: Vero cell re-infection assay (infectious ZIKV in hNPC supernatant); assay type: cell-based, Zika virus; conditions: supernatant of hNPC cultures, 72 h after infection
Procedure: as §1

[3] = tested on: ZIKV (PRVABC59 strain); assay: ZIKV PRVABC59 infection of hNPCs (immunocytochemistry); assay type: cell-based, Zika virus; conditions: MOI=0.125, 72 h
Procedure: as §1

[4] = tested on: hNPCs; assay: hNPC viability, proliferation, apoptosis and identity; assay type: cell-based, human; conditions: for ZIKV induced growth arrest or apoptosis of hNPCs: 72 h after ZIKV (MR766) infection, vs DMSO
Procedure: (A) Scheme of high content chemical screen. (B) Chemical structure of hit compounds. (C) Inhibitory curve and IC50 of HH or AQ on hNPCs (n=6). (D-H) Immunocytochemistry analysis (D), the quantification of the infection rate (E), the quantification of proliferation rate (F), the quantification of cell apoptosis rate (G) and the normalized cell viability (H) of hNPCs at 72 h after ZIKV (MR 766 strain) infection with or without drug treatment. Scale bars, 100 μm. The ZIKV infection rate is defined as the percentage of ZIKV E^+ cells. The proliferation rate is defined as the percentages of Ki67^+ cells. The cell apoptosis rate was defined as the percentage of cleaved-Caspase 3/CAS3^+ cells. The normalized cell viability was calculated by dividing the total cell number of each condition by the total cell number under mock infection conditions. (n=6). (I) qRT-PCR analysis to monitor the total ZIKV vRNA in the supernatant of hNPC cultures at 72 h after ZIKV infection with or without drug treatment. (J) Vero cell reinfection assay to monitor the ZIKV infectious particles in the supernatant of hNPC cultures with or without drug treatment. To perform the Vero cell reinfection assay, hNPCs at 72 h after ZIKV infection were washed three times and changed to drug free medium for an additional 24 h. Vero cells were infected with the supernatant collected from hNPCs for 2 h and changed to virus free medium for an additional 24 h. Vero cells were stained with antibody against ZIKV E and DAPI. Scale bars, 200 μm. (n=3). (K) Quantification of ZIKV infectious particles produced by ZIKV-infected hNPCs with or without compound treatment by the Vero cell reinfection assay. (L) Heatmap analysis of mock-infected hNPCs treated with DMSO (mock); mock infected hNPCs treated with 25 μM HH (HH), mock-infected hNPCs treated with 15 μM AQ (AQ), ZIKV (MR766 strain, MOI=0.125) infected hNPCs treated with DMSO (ZIKV+DMSO); ZIKV-infected hNPCs treated with 25 μM HH (ZIKV+HH), and ZIKV-infected hNPCs treated with 15 μM AQ (ZIKV+AQ). […] (M and N) Immunocytochemistry analysis (M) and quantification of the infection rate (N) of hNPCs at 72 h after ZIKV (PRVABC59 strain) infection with or without drug treatment (n=6). Scale bars, 100 μm. p values were calculated by one-way repeated measures ANOVA with a Bonferroni test for multiple comparisons. *p<0.05, **p<0.01 and ***p<0.001.
(A) Scheme to evaluate the elimination of ZIKV. At day 0, hNPCs were infected with ZIKV for 2 h. After removal of ZIKV infection medium, hNPCs were treated with drug candidates. At day 3, the culture medium was changed to fresh medium without compounds. The cells were maintained in drug-free culture until day 6 and used for immunohistochemistry and qRT-PCR. (B and C) Inhibitory curve and IC50 of HH calculated based on the infection rate (B) and normalized cell viability (C) (n=6). (D and E) Immunocytochemistry analysis (D) and the quantification of infection rate, cell apoptosis rate, and total cell number (E) of hNPCs on day 3 and day 6. Cells was fixed and stained with cleaved Caspase-3 (CAS3), ZIKV E and DAPI. Scale bars, 100 μm. (F) qRT-PCR analysis to monitor the total ZIKV vRNA in the supernatant of hNPC cultures on day 6. Scale bars, 200 μm. (n=3). (G) Vero cell reinfection assay to monitor the infective ZIKV vRNA in the supernatant of hNPC cultures at day 6 after ZIKV infection. Scale bars, 200 μm. (n=3). (H) Quantification of ZIKV infectious particles produced by ZIKV-infected hNPCs at day 6 by the Vero cell reinfection assay. (I) hNPCs with or without ZIKV infection treated with HH maintain hNPC marker expression and differentiation capacity. hNPCs with or without ZIKV MR766 infection were treated with 25 μM HH or DMSO for 3 days and then stained for SOX2, NESTIN and with DAPI. hNPCs with or without ZIKV infection and treated with HH or DMSO for 3 days were differentiated to cortical neurons. The cortical neurons were then fixed and stained for MAP2, TUJ1 and with DAPI. Scale bars, 100 μm. (n=3). […]

[5] = tested on: transcriptional changes induced by ZIKV (MR766 strain) infection; assay: RNA-seq analysis of ZIKV infected hNPCs; assay type: cell-based, human; conditions: 72 h post-inoculation, 25 μM HH or 15 μM AQ

SMILES | production of ZIKV viral RNA (vRNA), qRT-PCR [1] | production of infectious ZIKV, Vero cell re-infection assay [2] | ZIKV (PRVABC59) infection of hNPCs ([3]; 15 μM AQ) | ZIKV induced growth arrest or apoptosis of hNPCs [4] | transcriptional changes induced by ZIKV infection (RNA-seq) [5] | ZIKV (PRVABC59) infection of hNPCs ([3]; 25 μM HH) | cell death rate and total cell number ([4]; ZIKV infected hNPCs, day 6) | ZIKV-induced loss of cell viability ([4]; dose-dependent, compound applied 2 h post infection) | expression of neural progenitor markers SOX2 and NESTIN and differentiation capacity ([4]; hNPCs with or without ZIKV infection treated for 3 days) | cytotoxicity to hNPCs ([4]; highest dose of 100 μM)
CCN(CC)Cc1cc(Nc2ccnc3cc(Cl)ccc23)ccc1O [AQ, amodiaquine dihydrochloride dihydrate] | significantly suppressed | significantly suppressed | effectively inhibited ZIKV infection | blocked ZIKV induced growth arrest or apoptosis | reversed the transcriptional changes | – | – | – | – | –
CN1CCC2=C[C@H](O)[C@H]3OC(=O)c4cc5c(cc4[C@H]3[C@@H]21)OCO5 [HH, hippeastrine hydrobromide] | significantly suppressed | significantly suppressed | – | blocked ZIKV induced growth arrest or apoptosis | reversed the transcriptional changes | effectively inhibited ZIKV infection | comparable to control mock infection conditions | successfully rescued | maintained the expression of neural progenitor markers | no obvious cytotoxicity
